# Biological target: EGFR (human) (UniProt P00533)
# Details: a431
# Sequence of EGFR (human) (P00533 whole entry, looked up): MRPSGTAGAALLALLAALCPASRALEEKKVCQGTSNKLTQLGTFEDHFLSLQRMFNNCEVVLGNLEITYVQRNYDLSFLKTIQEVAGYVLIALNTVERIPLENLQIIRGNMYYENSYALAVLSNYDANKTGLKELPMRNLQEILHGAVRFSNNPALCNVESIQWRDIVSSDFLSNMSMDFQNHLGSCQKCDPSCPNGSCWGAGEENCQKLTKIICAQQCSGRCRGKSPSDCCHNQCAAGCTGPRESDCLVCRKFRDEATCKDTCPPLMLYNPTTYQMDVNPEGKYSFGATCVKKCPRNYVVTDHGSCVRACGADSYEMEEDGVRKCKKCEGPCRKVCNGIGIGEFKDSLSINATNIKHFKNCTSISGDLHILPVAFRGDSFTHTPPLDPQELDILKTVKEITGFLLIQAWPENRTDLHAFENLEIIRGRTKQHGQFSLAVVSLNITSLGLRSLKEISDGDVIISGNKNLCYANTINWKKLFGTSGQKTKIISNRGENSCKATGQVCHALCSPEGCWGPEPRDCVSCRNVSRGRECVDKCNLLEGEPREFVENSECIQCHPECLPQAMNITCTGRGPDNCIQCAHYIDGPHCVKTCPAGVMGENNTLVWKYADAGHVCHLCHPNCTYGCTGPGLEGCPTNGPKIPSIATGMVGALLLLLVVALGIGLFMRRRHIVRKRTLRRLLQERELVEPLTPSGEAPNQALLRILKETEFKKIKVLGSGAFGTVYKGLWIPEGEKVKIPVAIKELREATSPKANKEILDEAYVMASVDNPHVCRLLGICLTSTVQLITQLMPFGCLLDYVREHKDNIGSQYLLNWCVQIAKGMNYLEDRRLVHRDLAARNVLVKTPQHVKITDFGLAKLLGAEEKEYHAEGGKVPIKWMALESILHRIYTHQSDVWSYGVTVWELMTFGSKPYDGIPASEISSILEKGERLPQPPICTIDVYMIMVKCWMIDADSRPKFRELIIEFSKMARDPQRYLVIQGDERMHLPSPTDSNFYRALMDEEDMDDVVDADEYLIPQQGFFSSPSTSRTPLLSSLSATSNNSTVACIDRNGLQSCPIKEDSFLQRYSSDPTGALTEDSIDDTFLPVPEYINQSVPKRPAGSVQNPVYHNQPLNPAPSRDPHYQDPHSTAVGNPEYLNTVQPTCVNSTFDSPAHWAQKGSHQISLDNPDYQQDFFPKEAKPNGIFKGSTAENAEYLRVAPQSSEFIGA
row,Structure (SMILES),IC50 [µM]
1,Nc1nc(Nc2cccc(Br)c2)c2ccn(Cc3ccc(Cl)cc3)c2n1,16.1
2,Nc1nc(Nc2cccc(Br)c2)c2ccn(Cc3ccc(Cl)c(Cl)c3)c2n1,19.2
3,COc1cc(Cn2ccc3c(Nc4cccc(Br)c4)nc(N)nc32)cc(OC)c1OC,39
4,Nc1nc(Nc2cccc(Br)c2)c2ccn(Cc3ccc(Cl)cc3Cl)c2n1,15.3
5,Nc1nc(Nc2cccc(Br)c2)c2ccn(Cc3cccc4ccccc34)c2n1,36.3
6,Nc1nc(Nc2cccc(Br)c2)c2ccn(Cc3ccccc3Cl)c2n1,88.4
7,Nc1nc(Nc2cccc(Br)c2)c2ccn(Cc3ccc4ccccc4c3)c2n1,20.4
8,Nc1nc(Nc2cccc(Br)c2)c2ccn(Cc3ccc(-c4ccccc4)cc3)c2n1,13.3
9,COc1ccc(OC)c(Cn2ccc3c(Nc4cccc(Br)c4)nc(N)nc32)c1,40.6
10,Nc1nc(Nc2cccc(Br)c2)c2ccn(Cc3ccccc3)c2n1,50.4
11,Cc1ccccc1Cn1ccc2c(Nc3cccc(Br)c3)nc(N)nc21,15.7

# Source: the Kinase Knowledgebase extract (Sharma et al. 2016)
